In patent US20130164384A1, “METHODS OF TREATING BOWEL DISEASES BY ADMINISTERING A BOWEL CLEANSER AND AN ANTIBIOTIC” (Salix Pharmaceuticals, Ltd., priority 2008, published 2013):

Test system: subjects with dIBS
Test: Study of three rifaximin doses in subjects with dIBS: adequate relief of IBS symptoms and bloating
Type: in vivo, human
Conditions: for Adequate Relief of Bloating: Success / Adequate Relief of IBS Symptoms: Failure / Adequate Relief of IBS Symptoms: Success / Adequate Relief of Bloating: Failure: end of treatment phase
Experimental: This example relates to a study of three rifaximin doses in subjects with dIBS. Subjects were randomized to receive daily BID doses of rifaximin 275 mg, 550 mg, or 1100 mg for 14 days. A fifth group of subjects received rifaximin 550 mg BID for a period of 28 days. Subjects were questioned on the relief of overall IBS symptoms and bloating. […] The analyses defined success as a “yes” response to questions regarding adequate relief of SGA or IBS-B in at least 2 out of the final 3 weeks of the double-blind treatment period.
Baseline severity was determined using 7-point Lickert scales during screening for Abdominal Pain/Discomfort and Bloating, and the number, type (normal, hard, loose) and urgency of bowel movements.
Duration of effect was assessed in a 12 week follow-up period. Subjects that responded in the 4 week double-blind treatment period were followed for an additional 3 months. Fifty-three (53) subjects from the 550 mg 2 w and 59 subjects from the placebo-treated groups participated in this study phase.
Subjects recorded the following information on dIBS symptoms daily throughout the duration of the study: • Number of normal stools/day; • Number of hard and lumpy stools/day; • Number of loose or watery stools/day; • Number of loose or watery stools/day with the symptom of urgency; • How bothersome is abdominal pain and discomfort? [7-point response scale: 0 (not at all) to 6 (a very great deal)]; • How bothersome is bloating? [(7-point response scale: 0 (not at all) to 6 (a very great deal)].
Weekly summary variables were computed by averaging the recorded values over all pre-treatment days or over the seven days preceding the time point of interest for post-treatment assessments. For example, baseline included Days −10 to 0, Week 1 included Days 1 to 7, Week 2 included Days 8 to 14, and so forth through Week 16. Changes from baseline variables were computed for each weekly summary score.

[1] = RFX 550 2 w (550 mg BID 14 days), had screening colonoscopy, Average Bloating Discomfort Score at Baseline >4
[2] = RFX 550 4 w (550 mg BID 28 days), Had a Screening Colonoscopy: No
[3] = RFX 550 4 w (550 mg BID 28 days), Had a Screening Colonoscopy: Yes
[4] = RFX 550 4 w (550 mg BID 28 days), Screening Colonoscopy <=26 Days
[5] = RFX 550 4 w (550 mg BID 28 days), Screening Colonoscopy >26 Days
[6] = RFX 550 4 w (550 mg BID 28 days), had screening colonoscopy, Average Abdominal Pain Discomfort Score at Baseline <=4
[7] = RFX 550 4 w (550 mg BID 28 days), had screening colonoscopy, Average Abdominal Pain Discomfort Score at Baseline >4
[8] = RFX 550 4 w (550 mg BID 28 days), had screening colonoscopy, Average Bloating Discomfort Score at Baseline <=4
[9] = RFX 550 4 w (550 mg BID 28 days), had screening colonoscopy, Average Bloating Discomfort Score at Baseline >4
[10] = RFX 1100 2 w (1100 mg BID 14 days), Had a Screening Colonoscopy: No
[11] = RFX 1100 2 w (1100 mg BID 14 days), Had a Screening Colonoscopy: Yes
[12] = RFX 1100 2 w (1100 mg BID 14 days), Screening Colonoscopy <=26 Days
[13] = RFX 1100 2 w (1100 mg BID 14 days), Screening Colonoscopy >26 Days
[14] = RFX 1100 2 w (1100 mg BID 14 days), had screening colonoscopy, Average Abdominal Pain Discomfort Score at Baseline <=4
[15] = RFX 1100 2 w (1100 mg BID 14 days), had screening colonoscopy, Average Abdominal Pain Discomfort Score at Baseline >4
[16] = RFX 1100 2 w (1100 mg BID 14 days), had screening colonoscopy, Average Bloating Discomfort Score at Baseline <=4
[17] = RFX 1100 2 w (1100 mg BID 14 days), had screening colonoscopy, Average Bloating Discomfort Score at Baseline >4

## COC1/C=C/OC2(C)Oc3c(C)c(O)c4c(O)c(c5c(nc6cc(C)ccn65)c4c3C2=O)NC(=O)/C(C)=C\C=C\C(C)C(O)C(C)C(O)C(C)C(OC(C)=O)C1C [RFX, (2S,16Z,18E,20S,21S,22R,23R,24R,25S,26S,27S,28E)-5,6,21,23,25 Pentahydroxy-27-methoxy-2,4,11,16,20,22,24,26-octamethyl-2,7-(epoxypentadeca-(1,11,13)trienimino)benzofuro(4,5-e)pyrido(1,2,-a)benzimidazole-1,15(2H)-dione,25-acetate]
[1]
  Adequate Relief of Bloating: Success: 8 (50.0%) n (%)
  Adequate Relief of IBS Symptoms: Failure: 8 (50.0%) n (%)
  Adequate Relief of IBS Symptoms: Success: 8 (50.0%) n (%)
[2]
  Adequate Relief of Bloating: Failure: 37 (64.9%) n (%)
  Adequate Relief of Bloating: Success: 20 (35.1%) n (%)
  Adequate Relief of IBS Symptoms: Failure: 35 (61.4%) n (%)
  Adequate Relief of IBS Symptoms: Success: 22 (38.6%) n (%)
[3]
  Adequate Relief of Bloating: Failure: 23 (56.1%) n (%)
  Adequate Relief of Bloating: Success: 18 (43.9%) n (%)
  Adequate Relief of IBS Symptoms: Failure: 22 (53.7%) n (%)
  Adequate Relief of IBS Symptoms: Success: 19 (46.3%) n (%)
[4]
  Adequate Relief of Bloating: Failure: 12 (48.0%) n (%)
  Adequate Relief of Bloating: Success: 13 (52.0%) n (%)
  Adequate Relief of IBS Symptoms: Failure: 11 (44.0%) n (%)
  Adequate Relief of IBS Symptoms: Success: 14 (56.0%) n (%)
[5]
  Adequate Relief of Bloating: Failure: 11 (68.8%) n (%)
  Adequate Relief of Bloating: Success: 5 (31.3%) n (%)
  Adequate Relief of IBS Symptoms: Failure: 11 (68.8%) n (%)
  Adequate Relief of IBS Symptoms: Success: 5 (31.3%) n (%)
[6]
  Adequate Relief of Bloating: Failure: 19 (59.4%) n (%)
  Adequate Relief of Bloating: Success: 13 (40.6%) n (%)
  Adequate Relief of IBS Symptoms: Failure: 19 (59.4%) n (%)
  Adequate Relief of IBS Symptoms: Success: 13 (40.6%) n (%)
[7]
  Adequate Relief of Bloating: Failure: 4 (44.4%) n (%)
  Adequate Relief of Bloating: Success: 5 (55.6%) n (%)
  Adequate Relief of IBS Symptoms: Failure: 3 (33.3%) n (%)
  Adequate Relief of IBS Symptoms: Success: 6 (66.7%) n (%)
[8]
  Adequate Relief of Bloating: Failure: 15 (57.7%) n (%)
  Adequate Relief of Bloating: Success: 11 (42.3%) n (%)
  Adequate Relief of IBS Symptoms: Failure: 15 (57.7%) n (%)
  Adequate Relief of IBS Symptoms: Success: 11 (42.3%) n (%)
[9]
  Adequate Relief of Bloating: Failure: 8 (53.3%) n (%)
  Adequate Relief of Bloating: Success: 7 (46.7%) n (%)
  Adequate Relief of IBS Symptoms: Failure: 7 (46.7%) n (%)
  Adequate Relief of IBS Symptoms: Success: 8 (53.3%) n (%)
[10]
  Adequate Relief of Bloating: Failure: 30 (66.7%) n (%)
  Adequate Relief of Bloating: Success: 15 (33.3%) n (%)
  Adequate Relief of IBS Symptoms: Failure: 27 (60.0%) n (%)
  Adequate Relief of IBS Symptoms: Success: 18 (40.0%) n (%)
[11]
  Adequate Relief of Bloating: Failure: 31 (57.4%) n (%)
  Adequate Relief of Bloating: Success: 23 (42.6%) n (%)
  Adequate Relief of IBS Symptoms: Failure: 31 (57.4%) n (%)
  Adequate Relief of IBS Symptoms: Success: 23 (42.6%) n (%)
[12]
  Adequate Relief of Bloating: Failure: 20 (55.6%) n (%)
  Adequate Relief of Bloating: Success: 16 (44.4%) n (%)
  Adequate Relief of IBS Symptoms: Failure: 19 (52.8%) n (%)
  Adequate Relief of IBS Symptoms: Success: 17 (47.2%) n (%)
[13]
  Adequate Relief of Bloating: Failure: 11 (61.1%) n (%)
  Adequate Relief of Bloating: Success: 7 (38.9%) n (%)
  Adequate Relief of IBS Symptoms: Failure: 12 (66.7%) n (%)
  Adequate Relief of IBS Symptoms: Success: 6 (33.3%) n (%)
[14]
  Adequate Relief of Bloating: Failure: 22 (50.0%) n (%)
  Adequate Relief of Bloating: Success: 22 (50.0%) n (%)
  Adequate Relief of IBS Symptoms: Failure: 23 (52.3%) n (%)
  Adequate Relief of IBS Symptoms: Success: 21 (47.7%) n (%)
[15]
  Adequate Relief of Bloating: Failure: 9 (90.0%) n (%)
  Adequate Relief of Bloating: Success: 1 (10.0%) n (%)
  Adequate Relief of IBS Symptoms: Failure: 8 (80.0%) n (%)
  Adequate Relief of IBS Symptoms: Success: 2 (20.0%) n (%)
[16]
  Adequate Relief of Bloating: Failure: 21 (47.7%) n (%)
  Adequate Relief of Bloating: Success: 23 (52.3%) n (%)
  Adequate Relief of IBS Symptoms: Failure: 21 (47.7%) n (%)
  Adequate Relief of IBS Symptoms: Success: 23 (52.3%) n (%)
[17]
  Adequate Relief of Bloating: Failure: 10 (100.0%) n (%)
  Adequate Relief of Bloating: Success: 0 n (%)
  Adequate Relief of IBS Symptoms: Failure: 10 (100.0%) n (%)
  Adequate Relief of IBS Symptoms: Success: 0 n (%)
Purgative prior to treatment
  Likelihood of treatment effect with a purgative prior to rifaximin versus no cleanser: much more likely to have a treatment effect
Subjects who had a screening colonoscopy
  Rate of success in relief of symptoms with screening colonoscopy (GI cleanser) prior to rifaximin: higher rate of success in relief of symptoms
